SMILES strings stand for the structures.

One test concerns the target T1, ST6GAL1 (Homo sapiens, UniProt P15907).
T1 construct: recombinant Human ST6GAL1 (R&D systems #7620-GT)
T1 sequence (P15907 27-406): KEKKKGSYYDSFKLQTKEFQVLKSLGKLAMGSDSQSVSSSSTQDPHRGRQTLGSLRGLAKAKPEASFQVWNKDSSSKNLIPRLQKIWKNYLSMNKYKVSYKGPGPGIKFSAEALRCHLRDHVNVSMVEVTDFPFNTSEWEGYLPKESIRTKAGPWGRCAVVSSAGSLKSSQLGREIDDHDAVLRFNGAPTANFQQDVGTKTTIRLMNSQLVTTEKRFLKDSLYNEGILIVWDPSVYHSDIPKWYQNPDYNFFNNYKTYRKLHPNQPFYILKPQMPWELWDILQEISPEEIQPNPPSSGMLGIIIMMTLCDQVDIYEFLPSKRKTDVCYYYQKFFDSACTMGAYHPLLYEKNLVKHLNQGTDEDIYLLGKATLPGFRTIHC
Nature of the test: HPLC assay of sialylation of Galβ[…]-4GlcNAc with CMP-Neu5Ac by recombinant enzyme. Format: biochemical.

The next test concerns the target T2, ST3GAL3 (Homo sapiens, UniProt Q11203).
T2 construct: recombinant Human ST3GAL3 (R&D systems #10554-GT)
T2 sequence (Q11203 1-375): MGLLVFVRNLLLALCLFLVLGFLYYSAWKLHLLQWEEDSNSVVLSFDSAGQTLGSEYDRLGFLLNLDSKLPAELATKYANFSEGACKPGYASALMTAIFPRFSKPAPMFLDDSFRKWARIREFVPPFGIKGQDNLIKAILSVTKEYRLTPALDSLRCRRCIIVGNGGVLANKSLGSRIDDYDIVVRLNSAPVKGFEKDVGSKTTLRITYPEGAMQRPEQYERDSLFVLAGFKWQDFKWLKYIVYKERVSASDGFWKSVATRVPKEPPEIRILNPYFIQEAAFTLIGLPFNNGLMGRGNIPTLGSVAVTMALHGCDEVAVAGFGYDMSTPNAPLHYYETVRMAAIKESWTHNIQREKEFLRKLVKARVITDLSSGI
Nature of the test: phosphatase-coupled sialyltransferase activity assay (EA002 kit) with recombinant enzyme. It counts as biochemical.

In the case of `C[C@H](CCC(=O)OCCOCCOCCN=[N+]=[N-])C1CCC2C3CC[C@@H]4C[C@H](NC(=O)[C@H](CC(=O)O)Nc5ccc([N+](=O)[O-])c6nonc56)CC[C@]4(C)C3CC[C@@]21C` (some centres unmarked) [FCW393], the values for the IC50 at ST6GAL1 and at ST3GAL3 were 7.76 ± 0.06 µM and 9.45 ± 0.11 µM, respectively.

Source of the values: paper PMC11050067, “Development of a Novel, Potent, and Selective Sialyltransferase Inhibitor for Suppressing Cancer Metastasis” (International Journal of Molecular Sciences, 2024).
